This is an account of results in ChEMBL document CHEMBL1124051 (J Med Chem, 1988).

Data set [1] in a line: Partition coefficient (logP). Conditions: octanol/water. The format is physicochemical.
Data set [2] addresses Mu-type opioid receptor (Rattus norvegicus) (UniProt P33535). As to conditions: Brain; Membrane.
For data set [3] the target is unchanged. As to conditions: Brain; Membrane. This is another data set of the same source.

Chain of Mu-type opioid receptor (Rattus norvegicus) (P33535 whole entry): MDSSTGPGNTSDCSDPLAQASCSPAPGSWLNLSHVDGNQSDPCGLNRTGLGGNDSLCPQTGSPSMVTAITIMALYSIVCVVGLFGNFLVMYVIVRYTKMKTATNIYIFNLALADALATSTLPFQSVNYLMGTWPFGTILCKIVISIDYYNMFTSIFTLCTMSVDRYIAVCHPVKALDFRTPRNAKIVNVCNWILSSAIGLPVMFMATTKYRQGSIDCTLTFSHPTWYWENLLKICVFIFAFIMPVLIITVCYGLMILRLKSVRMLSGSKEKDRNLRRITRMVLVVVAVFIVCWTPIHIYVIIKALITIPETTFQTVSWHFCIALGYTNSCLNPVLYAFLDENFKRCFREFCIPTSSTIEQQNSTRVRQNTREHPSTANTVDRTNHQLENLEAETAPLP

`C=CCN1CCC23c4c5cccc4OC2C(O)CCC3C1C5` (configuration not stated): the logP in data set [1] (read-out: logP) came to 0.87. `CC1C2Cc3ccc(O)cc3C1(C)CCN2Cc1ccoc1` (stereo in doubt; form 2) gave a logP in data set [1] of 2.

For `C=CCN1CCC2(C)c3cc(O)ccc3CC1C2C` (stereo in doubt; form 2), the logP in data set [1] (read-out: logP) came to 1.73. In the case of `CN1CCC23c4c5cccc4OC2C(=O)CCC3C1C5` (configuration not stated), the log partition coefficient (logP) in data set [1] (read-out: logP) turned out to be 0.4. `CC1C2Cc3ccc(O)cc3C1(C)CCN2Cc1ccco1` (stereo in doubt; form 1) registered a log partition coefficient (logP) in data set [1] of 2.49. `CN1CC[C@]23c4c5ccc(O)c4O[C@H]2[C@@H](O)C=C[C@H]3[C@H]1C5` had a KT in data set [2] of 18.8. This compound also came in with a Kp in data set [3] of 12.6.

The compound `C[C@H]1[C@H]2Cc3ccc(O)cc3[C@]1(C)CCN2CC1CC1` [CYCLAZOCINE] returned a lipophilicity (logP) in data set [1] of 0.97. For the compound `CN1CCC23c4c5ccc(O)c4OC2C(O)CCC3C1C5` (configuration not stated), the logP in data set [1] (read-out: logP) was -0.51. On to `CC1C2Cc3ccc(O)cc3C1(C)CCN2Cc1ccco1` (stereo in doubt; form 2), for which the lipophilicity (logP) in data set [1] (read-out: logP) was determined as 2.68. In the case of `C=CCN1CCC23c4c5ccc(O)c4OC2C(O)C=CC3C1C5` (configuration not stated), the logP in data set [1] (read-out: logP) turned out to be 1.22. For `C[C@H]1[C@@H]2Cc3ccc(O)cc3[C@]1(C)CCN2C` [METAZOCINE], the logP in data set [1] (read-out: logP) was found to be 0.47. Still for that read-out and setting: to `CN1CCC23c4c5cccc4OC2CCCC3C1C5` (configuration not stated) belongs 1.35. Turning to `CN1CC[C@]23CCCC[C@H]2[C@H]1Cc1ccc(O)cc13` [LEVORPHANOL], in data set [1] (read-out: logP), the logP was 1.03. Also, the KT in data set [2] is 20.8. This compound also gave a Kp in data set [3] of 15.6. For the compound `CN1CCC23c4c5cccc4OC2C(=O)CCC3(O)C1C5` (configuration not stated), the logP in data set [1] (read-out: logP) was -0.23. For the compound `CC1C2Cc3ccc(O)cc3C1(C)CCN2Cc1ccoc1` (stereo in doubt; form 1), the logP in data set [1] (read-out: logP) was determined as 2.25. As to `C=CCN1CCC23CCCCC2C1Cc1ccc(O)cc13` (configuration not stated), in data set [1] (read-out: logP), the log partition coefficient (logP) was 2.14. In data set [2], this compound yielded a KT of 21.6. For the same compound, the Kp in data set [3] stood at 20.8. `CN1CCC23c4c5cccc4OC2C(O)C=CC3C1C5` (configuration not stated): the logP in data set [1] (read-out: logP) is 0.3. Take `C=CCN1CCC2(C)c3cc(O)ccc3CC1C2C` (stereo in doubt; form 1): in data set [1], the logP is recorded as 1.58.

In the case of `COc1ccc2c3c1O[C@H]1[C@@H](O)C=C[C@H]4[C@@H](C2)N(C)CC[C@@]341` [CODEINE], in data set [1] (read-out: logP), the logP turned out to be 0.25. In data set [2], this compound registered a KT of 13.3. The same compound displayed a Kp in data set [3] of 11.4.

On to `CN1CCC23c4c5ccc(O)c4OC2C(=O)CCC3(O)C1C5` (configuration not stated), for which the logP in data set [1] (read-out: logP) is -0.42.
